{"source": "patent US20260028354A1", "about": "“TETRAHYDRONAPHTHALENE DERIVATIVES AS ESTROGEN RECEPTOR DEGRADERS” (REGENT OF THE UNIVERSITY OF MICHIGAN, priority 2022, published 2026)", "key": {"ER": {"target": "ER (Homo sapiens (Human), UniProt P03372)", "sequence (P03372 whole entry)": "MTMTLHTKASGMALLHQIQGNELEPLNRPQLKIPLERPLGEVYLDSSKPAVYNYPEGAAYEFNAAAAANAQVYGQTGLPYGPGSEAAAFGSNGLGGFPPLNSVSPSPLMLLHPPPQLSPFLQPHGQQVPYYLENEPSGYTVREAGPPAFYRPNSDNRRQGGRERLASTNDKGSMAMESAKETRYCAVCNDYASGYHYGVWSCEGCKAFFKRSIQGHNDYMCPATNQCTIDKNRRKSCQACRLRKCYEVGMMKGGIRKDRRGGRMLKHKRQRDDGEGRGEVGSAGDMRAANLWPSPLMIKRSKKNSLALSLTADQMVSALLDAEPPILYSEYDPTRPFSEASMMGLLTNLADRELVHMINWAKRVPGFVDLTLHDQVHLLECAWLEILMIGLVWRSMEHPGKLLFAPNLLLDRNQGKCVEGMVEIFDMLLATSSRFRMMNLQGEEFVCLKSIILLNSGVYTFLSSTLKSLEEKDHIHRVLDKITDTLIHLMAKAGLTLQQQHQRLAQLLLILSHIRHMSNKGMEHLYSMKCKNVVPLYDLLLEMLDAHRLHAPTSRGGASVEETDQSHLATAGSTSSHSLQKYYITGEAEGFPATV", "assay": "In-cell western blot analysis of ER for \"B\" compounds", "format": "cell-based", "conditions": "16 hours, read-out: ICW DC50", "summary_of_the_method": "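ER levels given as a percentage of untreated/DMSO-treated wells (100%). Detection used primary antibodies for 2 h at room temperature followed by 680 and 800 nm fluorescent secondaries at 1:1000 for 1 h, read by LI-COR imaging.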"}, "[1]": {"assay": "Cell growth assay (WST-8) for \"B\" compounds", "format": "cell-based", "conditions": "T47D, read-out: Cell growth Inhibition in T47D cell line IC50", "summary_of_the_method": "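Four-day compound exposure of cells plated at 1500/well the day before. Read-out is WST-8 (10%, 2.5 h, 37 °C) absorbance at 450 nm, normalized to vehicle control over three independent repeats.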"}}, "note": "Read-outs that look alike come from different tables or passages of the source.", "data": [{"smiles": "CCN(CC1CCN(c2ccc([C@@H]3c4ccc(O)cc4CC[C@@H]3c3ccccc3)cc2)CC1)[C@H]1C[C@H]2COc3cc4c(cc3N2C1)CN(C1CCC(=O)NC1=O)C4=O", "note": "(stereo partly drawn) [Compound B311, 3-((2S,3aS)-2-(ethyl((1-(4-((1R,2S)-6-hydroxy-2-phenyl-1,2,3,4-tetrahydronaphthalen-1-yl)phenyl)piperidin-4-yl)methyl)amino)-7-oxo-2,3,3a,4,7,9-hexahydro-1H,8H-pyrrolo[1′,2′:4,5][1,4]oxazino[2,3-f]isoindol-8-yl)piperidine-2,6-dione]", "values": [{"measurement": "DC50", "setting": "ER", "result": "> 100", "unit": "nM"}, {"measurement": "IC50", "setting": "[1]; T47D cell line", "result": "< 1", "unit": "nM"}]}, {"smiles": "CN(C(=O)c1ccc2c(c1)OC[C@@H]1CN(CC3CC4(CCN(c5ccc([C@@H]6c7ccc(O)cc7CC[C@@H]6c6ccccc6)cc5)CC4)C3)CCN21)C1CCC(=O)NC1=O", "note": "(stereo partly drawn) [Compound B312, (4aS)-N-(2,6-dioxopiperidin-3-yl)-3-((7-(4-((1R,2S)-6-hydroxy-2-phenyl-1,2,3,4-tetrahydronaphthalen-1-yl)phenyl)-7-azaspiro[3.5]nonan-2-yl)methyl)-N-methyl-1,2,3,4,4a,5-hexahydrobenzo[b]pyrazino[1,2-d][1,4]oxazine-8-carboxamide]", "values": [{"measurement": "DC50", "setting": "ER", "result": "> 100", "unit": "nM"}, {"measurement": "IC50", "setting": "[1]; T47D cell line", "result": "< 1", "unit": "nM"}]}, {"smiles": "O=C1CCC(N2Cc3c(ccc4c3OCC43CCN(CC4CC5(CCN(c6ccc([C@@H]7c8ccc(O)cc8CC[C@@H]7c7ccccc7)cc6)CC5)C4)CC3)C2=O)C(=O)N1", "note": "(stereo partly drawn) [Compound B313, 3-(1′-((7-(4-((1R,2S)-6-hydroxy-2-phenyl-1,2,3,4-tetrahydronaphthalen-1-yl)phenyl)-7-azaspiro[3.5]nonan-2-yl)methyl)-6-oxo-6,8-dihydro-2H,7H-spiro[furo[2,3-e]isoindole-3,4′-piperidin]-7-yl)piperidine-2,6-dione]", "values": [{"measurement": "DC50", "setting": "ER", "result": "10 to 100", "unit": "nM"}, {"measurement": "IC50", "setting": "[1]", "result": "< 1", "unit": "nM"}]}, {"smiles": "O=C1CC[C@H](NC(=O)c2ccc(N3CCN(CC4CCN(c5ccc([C@@H]6c7ccc(O)cc7CC[C@@H]6c6ccccc6)cc5)CC4)CC3)cc2)C(=O)N1", "note": "[Compound B315, N-((S)-2,6-dioxopiperidin-3-yl)-4-(4-((1-(4-((1R,2S)-6-hydroxy-2-phenyl-1,2,3,4-tetrahydronaphthalen-1-yl)phenyl)piperidin-4-yl)methyl)piperazin-1-yl)benzamide]", "values": [{"measurement": "DC50", "setting": "ER", "result": "> 100", "unit": "nM"}, {"measurement": "IC50", "setting": "[1]; T47D cell line", "result": "1 to 10", "unit": "nM"}]}, {"smiles": "O=C1CC[C@H](NC(=O)c2ccc(N3CCN(CC4CCN(c5ccc([C@@H]6c7ccc(O)cc7CC[C@@H]6c6ccccc6)cc5)CC4)CC3)cn2)C(=O)N1", "note": "[Compound B316, N-((S)-2,6-dioxopiperidin-3-yl)-5-(4-((1-(4-((1R,2S)-6-hydroxy-2-phenyl-1,2,3,4-tetrahydronaphthalen-1-yl)phenyl)piperidin-4-yl)methyl)piperazin-1-yl)picolinamide]", "values": [{"measurement": "DC50", "setting": "ER", "result": "10 to 100", "unit": "nM"}, {"measurement": "IC50", "setting": "[1]; T47D cell line", "result": "1 to 10", "unit": "nM"}]}, {"smiles": "O=C1CC[C@H](NC(=O)c2ccc(N3CCN(CC4CCN(c5ccc([C@@H]6c7ccc(O)cc7CC[C@@H]6c6ccccc6)cc5)CC4)CC3)cc2F)C(=O)N1", "note": "[Compound B317, N-((S)-2,6-dioxopiperidin-3-yl)-2-fluoro-4-(4-((1-(4-((1R,2S)-6-hydroxy-2-phenyl-1,2,3,4-tetrahydronaphthalen-1-yl)phenyl)piperidin-4-yl)methyl)piperazin-1-yl)benzamide]", "values": [{"measurement": "DC50", "setting": "ER", "result": "> 100", "unit": "nM"}, {"measurement": "IC50", "setting": "[1]; T47D cell line", "result": "1 to 10", "unit": "nM"}]}, {"smiles": "O=C1CCC(N2C(=O)c3cc4c(cc3C2=O)CN(CC(=O)N2CCOC3(CCN(c5ccc([C@@H]6c7ccc(O)cc7CC[C@@H]6c6ccccc6)cc5)CC3)C2)C4)C(=O)N1", "note": "(stereo partly drawn) [Compound B325, 2-(2,6-dioxopiperidin-3-yl)-6-(2-(9-(4-((1R,2S)-6-hydroxy-2-phenyl-1,2,3,4-tetrahydronaphthalen-1-yl)phenyl)-1-oxa-4,9-diazaspiro[5.5]undecan-4-yl)-2-oxoethyl)-6,7-dihydropyrrolo[3,4-f]isoindole-1,3(2H,5H)-dione]", "values": [{"measurement": "DC50", "setting": "ER", "result": "10 to 100", "unit": "nM"}, {"measurement": "IC50", "setting": "[1]; T47D cell line", "result": "1 to 10", "unit": "nM"}]}, {"smiles": "CN(C(=O)c1ccc2c(c1)OC[C@H]1CN(CC3CC4(CCN(c5ccc([C@@H]6c7ccc(O)cc7CC[C@@H]6c6ccccc6)cc5)CC4)C3)CCN21)C1CCC(=O)NC1=O", "note": "(stereo partly drawn) [Compound B326, (4aR)-N-(2,6-dioxopiperidin-3-yl)-3-((7-(4-((1R,2S)-6-hydroxy-2-phenyl-1,2,3,4-tetrahydronaphthalen-1-yl)phenyl)-7-azaspiro[3.5]nonan-2-yl)methyl)-N-methyl-1,2,3,4,4a,5-hexahydrobenzo[b]pyrazino[1,2-d][1,4]oxazine-8-carboxamide]", "values": [{"measurement": "DC50", "setting": "ER", "result": "> 100", "unit": "nM"}, {"measurement": "IC50", "setting": "[1]; T47D cell line", "result": "1 to 10", "unit": "nM"}]}, {"smiles": "O=C1CCC(N2Cc3c(ccc4c3OC[C@H]3CN(CC5COC6(CN(c7ccc([C@@H]8c9ccc(O)cc9CC[C@@H]8c8ccccc8)cc7)C6)OC5)CCN43)C2=O)C(=O)N1", "note": "(stereo partly drawn) [Compound B327, 3-((R)-7-((2-(4-((1R,2S)-6-hydroxy-2-phenyl-1,2,3,4-tetrahydronaphthalen-1-yl)phenyl)-5,9-dioxa-2-azaspiro[3.5]nonan-7-yl)methyl)-1-oxo-1,3,5,5a,6,7,8,9-octahydro-2H-pyrazino[1′,2′:4,5][1,4]oxazino[2,3-e]isoindol-2-yl)piperidine-2,6-dione]", "values": [{"measurement": "DC50", "setting": "ER", "result": "10 to 100", "unit": "nM"}, {"measurement": "IC50", "setting": "[1]; T47D cell line", "result": "< 1", "unit": "nM"}]}, {"smiles": "O=C1CCC(N2Cc3cc4c(cc3C2=O)OC[C@@H]2CN(CC3COC5(CN(c6ccc([C@@H]7c8ccc(O)cc8CC[C@@H]7c7ccccc7)cc6)C5)OC3)CCN42)C(=O)N1", "note": "(stereo partly drawn) [Compound B328, 3-((S)-3-((2-(4-((1R,2S)-6-hydroxy-2-phenyl-1,2,3,4-tetrahydronaphthalen-1-yl)phenyl)-5,9-dioxa-2-azaspiro[3.5]nonan-7-yl)methyl)-8-oxo-1,2,3,4,4a,5,8,10-octahydro-9H-pyrazino[1′,2′:4,5][1,4]oxazino[2,3-f]isoindol-9-yl)piperidine-2,6-dione]", "values": [{"measurement": "DC50", "setting": "ER", "result": "10 to 100", "unit": "nM"}, {"measurement": "IC50", "setting": "[1]; T47D cell line", "result": "1 to 10", "unit": "nM"}]}, {"smiles": "O=C1CCC(N2C(=O)c3cc4c(cc3C2=O)N2C[C@@H](NCC3CC5(CCN(c6ccc([C@@H]7c8ccc(O)cc8CC[C@@H]7c7ccccc7)cc6)CC5)C3)C[C@H]2CO4)C(=O)N1", "note": "(stereo partly drawn) [Compound B329, (2S,3aS)-8-(2,6-dioxopiperidin-3-yl)-2-(((7-(4-((1R,2S)-6-hydroxy-2-phenyl-1,2,3,4-tetrahydronaphthalen-1-yl)phenyl)-7-azaspiro[3.5]nonan-2-yl)methyl)amino)-2,3,3a,4-tetrahydro-1H,7H-pyrrolo[1′,2′:4,5][1,4]oxazino[2,3-f]isoindole-7,9(8H)-dione]", "values": [{"measurement": "DC50", "setting": "ER", "result": "> 100", "unit": "nM"}, {"measurement": "IC50", "setting": "[1]; T47D cell line", "result": "> 10", "unit": "nM"}]}, {"smiles": "O=C1CCC(N2Cc3cc4c(cc3C2=O)OC[C@@H]2CN(CC3CCC5(CCN(c6ccc([C@@H]7c8ccc(O)cc8CC[C@@H]7c7ccccc7)cc6)CC5)OC3)CCN42)C(=O)N1", "note": "(stereo partly drawn) [Compound B332, 3-((4aS)-3-((9-(4-((1R,2S)-6-hydroxy-2-phenyl-1,2,3,4-tetrahydronaphthalen-1-yl)phenyl)-1-oxa-9-azaspiro[5.5]undecan-3-yl)methyl)-8-oxo-1,2,3,4,4a,5,8,10-octahydro-9H-pyrazino[1′,2′:4,5][1,4]oxazino[2,3-f]isoindol-9-yl)piperidine-2,6-dione]", "values": [{"measurement": "DC50", "setting": "ER", "result": "< 10", "unit": "nM"}, {"measurement": "IC50", "setting": "[1]; T47D cell line", "result": "1 to 10", "unit": "nM"}]}, {"smiles": "O=C1CC[C@H](N2Cc3c(ccc4c3OC[C@H]3CN(CC5CCC6(CN(c7ccc([C@@H]8c9ccc(O)cc9CC[C@@H]8c8ccccc8)cc7)C6)OC5)CCN43)C2=O)C(=O)N1", "note": "(stereo partly drawn) [Compound B333, (3S)-3-((5aR)-7-((2-(4-((1R,2S)-6-hydroxy-2-phenyl-1,2,3,4-tetrahydronaphthalen-1-yl)phenyl)-5-oxa-2-azaspiro[3.5]nonan-7-yl)methyl)-1-oxo-1,3,5,5a,6,7,8,9-octahydro-2H-pyrazino[1′,2′:4,5][1,4]oxazino[2,3-e]isoindol-2-yl)piperidine-2,6-dione]", "values": [{"measurement": "DC50", "setting": "ER", "result": "< 10", "unit": "nM"}, {"measurement": "IC50", "setting": "[1]; T47D cell line", "result": "< 1", "unit": "nM"}]}, {"smiles": "O=C1CCC(N2Cc3cc4c(cc3C2=O)OC[C@@H]2CN(CC3CCC5(CN(c6ccc([C@@H]7c8ccc(O)cc8CC[C@@H]7c7ccccc7)cc6)C5)OC3)CCN42)C(=O)N1", "note": "(stereo partly drawn) [Compound B334, 3-((4aS)-3-((2-(4-((1R,2S)-6-hydroxy-2-phenyl-1,2,3,4-tetrahydronaphthalen-1-yl)phenyl)-5-oxa-2-azaspiro[3.5]nonan-7-yl)methyl)-8-oxo-1,2,3,4,4a,5,8,10-octahydro-9H-pyrazino[1′,2′:4,5][1,4]oxazino[2,3-f]isoindol-9-yl)piperidine-2,6-dione]", "values": [{"measurement": "DC50", "setting": "ER", "result": "10 to 100", "unit": "nM"}, {"measurement": "IC50", "setting": "[1]; T47D cell line", "result": "< 1", "unit": "nM"}]}, {"smiles": "O=C1CCC(N2Cc3c(ccc4c3OCC43CCN(CC4CCC5(CN(c6ccc([C@@H]7c8ccc(O)cc8CC[C@@H]7c7ccccc7)cc6)C5)OC4)CC3)C2=O)C(=O)N1", "note": "(stereo partly drawn) [Compound B335, 3-(1′-((2-(4-((1R,2S)-6-hydroxy-2-phenyl-1,2,3,4-tetrahydronaphthalen-1-yl)phenyl)-5-oxa-2-azaspiro[3.5]nonan-7-yl)methyl)-6-oxo-6,8-dihydro-2H,7H-spiro[furo[2,3-e]isoindole-3,4′-piperidin]-7-yl)piperidine-2,6-dione]", "values": [{"measurement": "DC50", "setting": "ER", "result": "10 to 100", "unit": "nM"}, {"measurement": "IC50", "setting": "[1]", "result": "< 1", "unit": "nM"}]}, {"smiles": "O=C1CC[C@H](NC(=O)c2ccc3c(n2)OC[C@H]2CN(CC4COC5(CCN(c6ccc([C@@H]7c8ccc(O)cc8CC[C@@H]7c7ccccc7)cc6)CC5)OC4)CCN32)C(=O)N1", "note": "[Compound B336, (R)-N-((S)-2,6-dioxopiperidin-3-yl)-3-((9-(4-((1R,2S)-6-hydroxy-2-phenyl-1,2,3,4-tetrahydronaphthalen-1-yl)phenyl)-1,5-dioxa-9-azaspiro[5.5]undecan-3-yl)methyl)-1,2,3,4,4a,5-hexahydropyrazino[1,2-d]pyrido[2,3-b][1,4]oxazine-8-carboxamide]", "values": [{"measurement": "DC50", "setting": "ER", "result": "10 to 100", "unit": "nM"}, {"measurement": "IC50", "setting": "[1]; T47D cell line", "result": "1 to 10", "unit": "nM"}]}]}
